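All cell lines were grown in 96-well plates and treated with compound for 48 hours. The concentration for full growth arrest is given as TGI.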

Common to all, as to test: NCI-60 cell line screen, 48 h
The test system of assay [1] is HT29 colon.
Assay [2] has as its system M14 melanoma.
Assay [3] concerns MDA-MB-435.
For assay [4], the system named is NCI-H226 lung.
In assay [5] the test system is NCI/ADR-RES ovarian.
Assay [6] concerns SK-MEL-2 melanoma.
For assay [7], the system named is SK-MEL-5 melanoma.
For assay [8], the system named is SW-620 colon.
Assay [9] has as its system TK-10 renal.
Assay [10] concerns UACC-257 melanoma.
In assay [11] the test system is UACC-62 melanoma.

For the molecule `BrC1=C(Br)C2(SCCS2)[C@H]2C[C@@H]1c1ccccc12`, the TGI in assay [1], in assay [2], in assay [3], in [4], in assay [5] and in assay [6] was > 100 µM each time. The TGI was > 41.6 µM in assay [7]; > 100 µM in assay [8]; > 100 µM in assay [9]; > 100 µM in assay [10]; > 100 µM in assay [11].

On to `O=c1oc2ccccc2cc1-c1cc2ccccn2c1`, for which the TGI in [1], in assay [2], in [3], in assay [4], in [5] and in [6] was > 100 µM throughout. In addition, the TGI in [7], in assay [8], in [9], in assay [10] and in assay [11] was > 100 µM in each case.

For `O=C1C2SC34c5c2c2ccccc2n5CCC3CCCN14` (stereo not drawn), the TGI in assay [1], in assay [2], in [3], in assay [4], in assay [5] and in assay [6] was > 100 µM each time. The TGI was > 100 µM in assay [7]; > 100 µM in assay [8]; 87 µM in assay [9]; 95.5 µM in [10]; > 100 µM in assay [11].

Source of the values: PubChem BioAssay (NCI).
